In EP4703354A1, “COMPOUND AS CCR6 ANTAGONIST, AND PHARMACEUTICAL COMPOSITION AND USE THEREOF” (Wuhan Createrna Science and Technology Co.,Ltd., priority 2023, dated 2024):
Read-outs that look alike come from different tables or passages of the source.

Assays:
[1] = in vivo pharmacokinetic study in SD rats; settings: rat; for bioavailability: 1 mg/kg PO vs 1 mg/kg IV, read-out: Oral bioavailability F (%); for AUC(0-t) / Cmax / half-life: 1 mg/kg
How it was run: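 Male SD rats (180-200 g), 3 per route: single fasted oral gavage in 1% Tween 80 or tail-vein IV bolus in 50% PEG400. Orbital blood into EDTA-K2 sampled to 8 h; plasma analysed and PK parameters derived by non-compartmental analysis.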

[2] = in vitro liver microsome metabolic stability, human; type: in vitro ADME; settings: Human liver microsomes, 37°C
Experimental: (§1) Preparation of working solutions for test compounds and standards: An appropriate amount of the compound was accurately weighed and dissolved in a corresponding volume of suitable solvent to prepare 1 mM stock solutions of the test compounds and standards. The stock solutions were then diluted with appropriate solvent to obtain 100 µM working solutions of the test compounds, ensuring that the DMSO content in the working solutions remained below 10%.
(§2) The internal standard compound testosterone (or tolbutamide) and its corresponding solvent, internal standard concentration (200 ng/mL), were selected based on the properties of the test compound.
(§3) • Solution A: 0.1 mol/L K2HPO4 (2.28 g K2HPO4·3H2O was dissolved in 100 mL of double-distilled water); • Solution B: 0.1 mol/L KH2PO4 (1.36 g KH2PO4 was dissolved in 100 mL of double-distilled water); • 80.2 mL of Solution A and 19.8 mL of Solution B were mixed thoroughly, and the pH was adjusted to 7.4.
(§4) 37.5 mg of glycine was weighed, dissolved in 100 mL of ultrapure water, and adjusted to pH 8.0 with NaOH.
(§5) 1.25 mg of glucose-6-phosphate dehydrogenase (400 U/mg) was weighed (the specific amount weighed was calculated based on the activity of the purchased glucose-6-phosphate dehydrogenase), dissolved in 1 mL of glycine buffer to a concentration of 500 U/mL, aliquoted into 20 µL per tube, and stored at -20°C for future use.
(§6) 7.83 mg of NADP, 0.06 mL of D-glucose-6-phosphate (260 mg/mL), and 10.17 mg of MgCl2·6H2O were precisely weighed.
(§7) The mixture was dissolved in 1 mL of pure water. The cofactor ratio composition: NADP 10 mM, D-glucose-6-phosphate 60 mM, MgCl2·6H2O 50 mM.
(§8) The reaction system (taking a 500 µL system as an example) was composed of the following solution ratios: 416.5 µL phosphate buffer, 5 µL compound working solution, 25 µL liver microsomes, 3.5 µL glucose-6-phosphate dehydrogenase, and 50 µL cofactor solution. The total incubation volume could be adjusted according to experimental requirements.
(§9) 416.5 µL of phosphate buffer was taken, 25 µL of liver microsomes, 3.5 µL of glucose-6-phosphate dehydrogenase, and 50 µL of cofactor solution were added, vortexed twice to mix, and preincubated in a 37°C water bath for 5 minutes. Then, 5 µL of the test compound working solution was added, vortexed twice to mix, each time for 2-3 seconds, and placed in a 37°C water bath to initiate the reaction, with two parallel samples set. At 0.5 min, 1 min, 2 min, 5 min, 15 min, and 30 min after the reaction, 50 µL of the mixture was taken and added to centrifuge tubes containing 200 µL of 0°C pre-cooled internal standard working solution to terminate the reaction, vortexed for 1 minute to mix, and centrifuged at 13,000 rpm for 10 minutes in a 4°C pre-cooled high-speed centrifuge. The supernatant was collected for analysis. After the compound was added and vortex-mixed, 50 µL of the mixture was rapidly transferred to a centrifuge tube containing 200 µL of a pre-cooled (0°C) internal standard working solution to terminate the reaction, vortex-mixed for 1 minute, and used as the relative zero-point sample (relative to the standard group). The sample was then placed into a 37°C water bath to initiate the reaction, and timing was started.
(§10) The sample analysis of the test compound was performed using the liquid chromatography-tandem mass spectrometry (LCMS/MS) method. The semi-quantitative determination was performed using the ratio of the analyte peak area to the internal standard peak area. The retention times of the analyte and internal standard, chromatogram acquisition, and chromatogram integration were processed using Analyst software.
(§11) The in vitro elimination rate constant k of the test compound and the control compound was determined by converting the ratio of the peak area of the test compound to the internal standard into the remaining rate, and T1/2 was then calculated according to the following formula. T1/2 = (Ln2)/(k) = (0.693)/(k) [formula] Table 3. […]

[3] = in vitro liver microsome metabolic stability, rat; type: in vitro ADME; settings: Rat liver microsomes, 37°C
Experimental: as §1, §2, §3, §4, §5, §6, §7, §8, §9, §10, §11

[4] = in vitro liver microsome metabolic stability, beagle dog; type: in vitro ADME; settings: Beagle dog liver microsomes, 37°C
Experimental: as §1, §2, §3, §4, §5, §6, §7, §8, §9, §10, §11

human CCR6 = molecular target: T1, human CCR6 (Homo sapiens, UniProt P51684); experiment: human CCR6 calcium flux activity (FLIPR, HEK293 cells stably expressing human CCR6, CCL20 stimulation); type: cell-based; settings: HEK293 cells stably expressing human CCR6, EC80 human MIP-3 alpha/CCL20; read-out: CCR6 inhibitory activity, IC50
T1 construct: expressed in transfected cells; host or cells: HEK293
T1 sequence (P51684 1-374): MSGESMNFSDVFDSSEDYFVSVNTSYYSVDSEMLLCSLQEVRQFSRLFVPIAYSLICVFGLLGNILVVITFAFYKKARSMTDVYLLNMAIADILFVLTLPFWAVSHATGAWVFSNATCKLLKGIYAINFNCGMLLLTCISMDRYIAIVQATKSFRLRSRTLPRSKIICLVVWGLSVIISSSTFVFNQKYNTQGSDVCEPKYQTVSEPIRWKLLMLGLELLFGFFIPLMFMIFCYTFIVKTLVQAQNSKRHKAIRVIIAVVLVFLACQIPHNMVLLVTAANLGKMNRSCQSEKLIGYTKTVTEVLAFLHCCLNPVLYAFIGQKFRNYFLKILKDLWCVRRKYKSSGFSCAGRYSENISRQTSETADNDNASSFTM
How it was run: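 Compounds preincubated with Fluo-4 Direct-loaded cells 50 min at 37 °C, then 10 min at room temperature, before CCL20 challenge at EC80. Fluorescence (ex 494/em 516 nm) recorded 90 s; max−min signal gives inhibition, four-parameter fit yields IC50.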

Row | SMILES | Liver microsome T1-2 (min) Human [2] [min] | Liver microsome T1-2 (min) Rat [3] [min] | Liver microsome T1-2 (min) Beagle dog [4] [min] | other results
1 | Cc1cccnc1[C@H](Nc1c(Nc2ccc(F)c(C(=O)N(C)C)c2O)c(=O)c1=O)C1(C)CC(F)(F)C1 [compound 089, (R)-3-((2-(((3,3-difluoro-1-methylcyclobutyl)(3-methylpyridin-2-yl)methyl)amino)-3,4-dioxocyclobut-1-en-1-yl)amino)-6-fluoro-2-hydroxy-N,N-dimethylbenzamide] | 331.10 | 88.93 | 258.52 | bioavailability ([1]; male, plasma): 21.1%; AUC(0-t) ([1]; male, plasma, IV): 772 ng·h/mL; Cmax ([1]; male, plasma, IV): 4300 ng/mL; AUC(0-t) ([1]; male, plasma, PO): 163 ng·h/mL; Cmax ([1]; male, plasma, PO): 96.4 ng/mL; half-life ([1]; male, plasma, PO): 2.61 h
2 | CN(C)C(=O)c1nccc(Nc2c(N[C@@H](c3ccc(Cl)cn3)C3(C)CCCC3)c(=O)c2=O)c1O [compound 013, (R)-4-((2-(((5-chloropyridin-2-yl)(1-methylcyclopentyl)methyl)amino)-3,4-dioxocyclobut-1-en-1-yl)amino)-3-hydroxy-N,N-dimethylpicolinamide] | 345.84 | 54.23 | 252.63 | IC50 (human CCR6): 19.3 nM
3 | CC#CC(Nc1c(Nc2ccnc(C(=O)N(C)C)c2O)c(=O)c1=O)C1(C)CCC(F)(F)C1 (stereo not shown) [compound 111, 4-((2-((1-(3,3-difluoro-1-methylcyclopentyl)but-2-yn-1-yl)amino)-3,4-dioxocyclobut-1-en-1-yl)amino)-3-hydroxy-N,N-dimethylpicolinamide] | 548.28 | 266.64 | 982.5 | IC50 (human CCR6): 106 nM
4 | Cc1cccnc1[C@H](Nc1c(Nc2ccc(Cl)c(C(=O)N(C)C)c2O)c(=O)c1=O)C1(C)CC(F)CO1 (stereo partly drawn) [compound 081, 6-chloro-3-((2-(((1S)-(4-fluoro-2-methyltetrahydrofuran-2-yl)(3-methylpyridin-2-yl)methyl)amino)-3,4-dioxocyclobut-l-en-1-yl)amino)-2-hydroxy-N,N-dimethylbenzamide] | 713.96 | 403.32 | 669.81 | –
5 | CN(C)C(=O)c1nccc(Nc2c(NC(c3nc(C(F)(F)F)ccc3F)C3(C)CC(F)(F)CO3)c(=O)c2=O)c1O (stereo not shown) [compound 098] | 208.30 | 195.59 | 102.59 | bioavailability ([1]; in vivo): 21.6%; AUC(0-t) ([1]; in vivo, IV): 630 ng·h/mL; Cmax ([1]; in vivo, IV): 2740 ng/mL; AUC(0-t) ([1]; in vivo, PO): 136 ng·h/mL; Cmax ([1]; in vivo, PO): 102 ng/mL; half-life ([1]; in vivo, PO): 2.74 h
6 | Cc1nccnc1[C@H](Nc1c(Nc2ccnc(C(=O)N(C)C)c2O)c(=O)c1=O)C1(C)CCCC1 [compound 091, (R)-3-hydroxy-N,N-dimethyl-4-((2-(((1-methylcyclopentyl)(3-methylpyrazin-2-yl)methyl)amino)-3,4-dioxocyclobut-1-en-1-yl)amino)picolinamide] | 717.09 | 72.62 | 338.24 | –
7 | Cc1cccnc1[C@H](Nc1c(Nc2ccnc(C(=O)N(C)C)c2O)c(=O)c1=O)[C@]1(C)CC(F)(F)CO1 (single isomer, unassigned) [128B] | 158.82 | 216.24 | 222.45 | bioavailability ([1]; male, plasma): 36.7%; AUC(0-t) ([1]; male, plasma, IV): 910 ng·h/mL; Cmax ([1]; male, plasma, IV): 3270 ng/mL; AUC(0-t) ([1]; male, plasma, PO): 334 ng·h/mL; Cmax ([1]; male, plasma, PO): 182 ng/mL
8 | Cc1cccnc1C(Nc1c(Nc2ccc(Cl)c(C(=O)N(C)C)c2O)c(=O)c1=O)C1(C)CCOC1 (stereo not shown) [compound 083, 6-chloro-2-hydroxy-N,N-dimethyl-3-((2-(((3-methylpyridin-2-yl)(3-methyltetrahydrofuran-3-yl)methyl)amino)-3,4-dioxocyclobut-1-en-1-yl)amino)benzamide] | 412.77 | 290.38 | 741.46 | –
9 | Cc1cccnc1C(Nc1c(Nc2ccc(F)c(C(=O)N(C)C)c2O)c(=O)c1=O)[C@]1(C)CC(F)(F)CO1 (stereo partly drawn) [087A, 3-((2-((((S)-4,4-difluoro-2-methyltetrahydrofuran-2-yl)(3-methylpyridin-2-yl)methyl)amino)-3,4-dioxocyclobut-1-en-1-yl)amino)-6-fluoro-2-hydroxy-N,N-dimethylbenzamide] | 511.03 | 120.46 | 431.98 | –
10 | Cc1cccnc1[C@H](Nc1c(Nc2ccnc(C(=O)N(C)C)c2O)c(=O)c1=O)C1(C)CCCO1 (stereo partly drawn) [compound 082, 3-hydroxy-N,N-dimethyl-4-((2-(((1S)-(3-methylpyridin-2-yl)(2-methyltetrahydrofuran-2-yl)methyl)amino)-3,4-dioxocyclobut-1-en-1-yl)amino)picolinamide] | 261.96 | 290.01 | 275.16 | –
11 | Cc1cccnc1[C@H](Nc1c(Nc2ccc(Cl)c(C(=O)N(C)C)c2O)c(=O)c1=O)C1(C)CC(F)(F)C1 [compound 088, (R)-6-chloro-3-((2-(((3,3-difluoro-1-methylcyclobutyl)(3-methylpyridin-2-yl)methyl)amino)-3,4-dioxocyclobut-l-en-1-yl)amino)-2-hydroxy-N,N-dimethylbenzamide] | 423.69 | 39.67 | 753.15 | –
12 | Cc1cccnc1C(Nc1c(Nc2ccc(Cl)c(C(=O)N(C)C)c2O)c(=O)c1=O)C1(C)CC(F)(F)CO1 (stereo not shown) [compound 080, 6-chloro-3-((2-(((4,4-difluoro-2-methyltetrahydrofuran-2-yl)(3-methylpyridin-2-yl)methyl)amino)-3,4-dioxocyclobut-1-en-1-yl)amino)-2-hydroxy-N, N-dimethylbenzamide] | 539.06 | 109.92 | 1205.26 | –
